{
  "source": "paper PMC5431432",
  "about": "“Low-basicity 5-HT7 Receptor Agonists Synthesized Using the van Leusen Multicomponent Protocol” (Scientific Reports, 2017)",
  "key": {"[1]": {"tested_on": "α1", "test": "Eurofins Cerep binding screen α1", "conditions": "10^−6 M"}, "[2]": {"test": "Metabolic stability in human liver microsomes", "format": "in vitro ADME"}, "[3]": {"tested_on": "HepG2 cells", "test": "MTS cytotoxicity assay HepG2", "format": "cell-based", "conditions": "72 h incubation, 0.1–100 μM"}, "[4]": {"biological_target": "human serotonin 5-HT7bR (Homo sapiens, UniProt P34969)", "sequence (P34969 1-432 limits assumed)": "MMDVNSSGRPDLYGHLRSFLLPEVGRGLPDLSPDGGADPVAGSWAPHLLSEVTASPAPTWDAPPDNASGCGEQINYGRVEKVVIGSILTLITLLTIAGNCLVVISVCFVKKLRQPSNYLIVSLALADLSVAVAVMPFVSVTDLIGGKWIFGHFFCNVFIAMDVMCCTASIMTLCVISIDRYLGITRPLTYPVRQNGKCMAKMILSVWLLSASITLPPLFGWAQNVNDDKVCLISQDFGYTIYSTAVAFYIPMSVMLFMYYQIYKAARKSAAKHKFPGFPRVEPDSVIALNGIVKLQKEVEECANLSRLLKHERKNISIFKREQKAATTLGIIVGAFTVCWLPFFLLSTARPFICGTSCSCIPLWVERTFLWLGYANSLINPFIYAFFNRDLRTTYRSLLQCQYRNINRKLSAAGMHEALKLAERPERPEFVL", "test": "Radioligand binding, [3H]-5-CT displacement", "conditions": "read-out: K i (5-HT7R)"}, "[5]": {"biological_target": "human 5-HT7 receptor (Homo sapiens, UniProt P34969)", "sequence (P34969 1-432 limits assumed)": "as above", "test": "Functional assay, cAMP production (TR-FRET) in HEK293 cells overexpressing 5-HT7R", "format": "cell-based"}, "[6]": {"biological_target": "T1, 5-HT2B (Homo sapiens, UniProt P41595)", "T1 construct": "Eurofins Cerep (contract screen)", "T1 sequence (P41595 whole entry, species assumed)": "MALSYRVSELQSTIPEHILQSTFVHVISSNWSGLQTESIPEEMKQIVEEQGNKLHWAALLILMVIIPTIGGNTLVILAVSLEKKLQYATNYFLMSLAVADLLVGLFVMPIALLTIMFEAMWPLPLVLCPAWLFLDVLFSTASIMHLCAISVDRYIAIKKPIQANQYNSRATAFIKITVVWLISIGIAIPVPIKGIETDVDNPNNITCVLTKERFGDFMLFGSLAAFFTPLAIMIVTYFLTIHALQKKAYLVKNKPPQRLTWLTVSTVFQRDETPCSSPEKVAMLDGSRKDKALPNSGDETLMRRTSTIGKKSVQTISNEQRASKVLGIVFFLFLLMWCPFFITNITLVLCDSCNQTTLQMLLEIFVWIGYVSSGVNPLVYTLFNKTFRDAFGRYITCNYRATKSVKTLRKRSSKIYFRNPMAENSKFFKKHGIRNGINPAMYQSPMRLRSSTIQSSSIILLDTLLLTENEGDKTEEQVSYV", "test": "Eurofins Cerep binding screen 5-HT2B", "conditions": "read-out: % Inhibition of control binding 5-HT2B"}, "[7]": {"biological_target": "T2, α2C (Homo sapiens, UniProt P18825)", "T2 construct": "Eurofins Cerep (contract screen)", "T2 sequence (P18825 1-462)": "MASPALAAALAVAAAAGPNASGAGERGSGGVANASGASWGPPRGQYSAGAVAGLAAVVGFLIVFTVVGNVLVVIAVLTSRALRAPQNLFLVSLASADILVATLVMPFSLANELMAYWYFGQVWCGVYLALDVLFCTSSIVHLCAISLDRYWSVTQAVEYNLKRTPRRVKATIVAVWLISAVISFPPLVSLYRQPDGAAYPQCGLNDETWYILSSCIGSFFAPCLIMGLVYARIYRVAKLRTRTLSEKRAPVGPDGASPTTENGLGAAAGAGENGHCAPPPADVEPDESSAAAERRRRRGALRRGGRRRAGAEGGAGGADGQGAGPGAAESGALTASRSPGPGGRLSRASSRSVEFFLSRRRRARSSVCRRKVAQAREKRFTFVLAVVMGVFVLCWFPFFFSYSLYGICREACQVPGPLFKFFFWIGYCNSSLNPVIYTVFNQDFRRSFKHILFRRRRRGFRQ", "test": "Eurofins Cerep binding screen α2C", "conditions": "10^−6 M; read-out: % Inhibition of control binding α2C"}, "[8]": {"biological_target": "T3, 5-HT5A (Homo sapiens, UniProt P47898)", "T3 construct": "Eurofins Cerep (contract screen)", "T3 sequence (P47898 whole entry, species assumed)": "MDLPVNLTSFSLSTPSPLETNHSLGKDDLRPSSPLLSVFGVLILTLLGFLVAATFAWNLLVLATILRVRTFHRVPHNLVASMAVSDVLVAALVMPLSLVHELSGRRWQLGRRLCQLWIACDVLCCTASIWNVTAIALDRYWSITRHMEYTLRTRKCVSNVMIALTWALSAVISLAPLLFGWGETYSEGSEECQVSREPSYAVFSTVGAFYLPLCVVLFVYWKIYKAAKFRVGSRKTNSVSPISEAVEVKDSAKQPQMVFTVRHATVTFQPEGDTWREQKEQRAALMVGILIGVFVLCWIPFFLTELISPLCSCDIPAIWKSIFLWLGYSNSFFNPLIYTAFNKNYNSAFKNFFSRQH", "test": "Eurofins Cerep binding screen 5-HT5A", "conditions": "10^−6 M; read-out: % Inhibition of control binding 5-HT5A"}, "[9]": {"biological_target": "T4, D3 (Homo sapiens, UniProt P35462)", "T4 construct": "Eurofins Cerep (contract screen)", "T4 sequence (P35462 whole entry)": "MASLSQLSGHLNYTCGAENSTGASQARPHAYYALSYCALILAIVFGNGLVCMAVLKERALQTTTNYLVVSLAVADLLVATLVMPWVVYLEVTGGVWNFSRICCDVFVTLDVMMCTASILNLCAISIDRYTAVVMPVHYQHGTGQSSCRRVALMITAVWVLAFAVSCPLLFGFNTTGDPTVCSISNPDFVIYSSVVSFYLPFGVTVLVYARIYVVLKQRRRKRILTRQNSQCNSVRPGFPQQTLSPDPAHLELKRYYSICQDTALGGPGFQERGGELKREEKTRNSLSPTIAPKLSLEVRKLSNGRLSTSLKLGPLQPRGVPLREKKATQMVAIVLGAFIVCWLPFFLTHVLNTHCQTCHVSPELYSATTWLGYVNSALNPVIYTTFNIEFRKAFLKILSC", "test": "Eurofins Cerep binding screen D3", "conditions": "10^−6 M; read-out: % Inhibition of control binding D3"}, "[10]": {"tested_on": "HEK-293 cells", "test": "MTS cytotoxicity assay HEK-293", "format": "cell-based, human", "conditions": "72 h incubation, 0.1–100 μM"}, "[11]": {"test": "Water solubility (statement)", "format": "physicochemical"}, "[12]": {"biological_target": "T5, H1 (Homo sapiens, UniProt P35367)", "T5 construct": "Eurofins Cerep (contract screen)", "T5 sequence (P35367 whole entry)": "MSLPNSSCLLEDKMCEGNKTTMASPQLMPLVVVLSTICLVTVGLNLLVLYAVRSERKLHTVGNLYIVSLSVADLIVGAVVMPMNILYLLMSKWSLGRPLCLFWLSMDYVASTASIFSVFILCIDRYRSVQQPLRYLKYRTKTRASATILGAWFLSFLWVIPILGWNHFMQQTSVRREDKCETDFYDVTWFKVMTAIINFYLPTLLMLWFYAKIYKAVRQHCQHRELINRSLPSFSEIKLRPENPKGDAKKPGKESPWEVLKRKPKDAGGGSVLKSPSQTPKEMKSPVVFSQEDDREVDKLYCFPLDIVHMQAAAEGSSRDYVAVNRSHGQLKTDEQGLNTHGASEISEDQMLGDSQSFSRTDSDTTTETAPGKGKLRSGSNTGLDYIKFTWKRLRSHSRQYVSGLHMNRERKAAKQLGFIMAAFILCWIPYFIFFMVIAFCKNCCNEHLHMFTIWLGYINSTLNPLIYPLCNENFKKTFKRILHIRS", "test": "Eurofins Cerep binding screen H1", "conditions": "10^−6 M; read-out: % Inhibition of control binding H1"}, "[13]": {"biological_target": "T6, 5-HT1B (Homo sapiens, UniProt P28222)", "T6 construct": "Eurofins Cerep (contract screen)", "T6 sequence (P28222 whole entry, species assumed)": "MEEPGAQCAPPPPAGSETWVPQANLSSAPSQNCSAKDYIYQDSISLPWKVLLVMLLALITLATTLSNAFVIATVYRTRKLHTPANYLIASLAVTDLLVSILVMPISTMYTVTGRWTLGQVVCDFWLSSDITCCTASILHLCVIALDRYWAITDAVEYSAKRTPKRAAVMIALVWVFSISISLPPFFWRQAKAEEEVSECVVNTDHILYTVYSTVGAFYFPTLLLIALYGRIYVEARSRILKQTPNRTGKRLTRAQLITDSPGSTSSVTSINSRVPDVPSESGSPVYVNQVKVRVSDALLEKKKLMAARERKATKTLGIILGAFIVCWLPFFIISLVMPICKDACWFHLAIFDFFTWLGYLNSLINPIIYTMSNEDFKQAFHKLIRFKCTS", "test": "Eurofins Cerep binding screen 5-HT1B", "conditions": "10^−6 M; read-out: % Inhibition of control binding 5-HT1B"}, "[14]": {"biological_target": "T7, CYP3A4 (Homo sapiens, UniProt P08684)", "T7 sequence (P08684 whole entry)": "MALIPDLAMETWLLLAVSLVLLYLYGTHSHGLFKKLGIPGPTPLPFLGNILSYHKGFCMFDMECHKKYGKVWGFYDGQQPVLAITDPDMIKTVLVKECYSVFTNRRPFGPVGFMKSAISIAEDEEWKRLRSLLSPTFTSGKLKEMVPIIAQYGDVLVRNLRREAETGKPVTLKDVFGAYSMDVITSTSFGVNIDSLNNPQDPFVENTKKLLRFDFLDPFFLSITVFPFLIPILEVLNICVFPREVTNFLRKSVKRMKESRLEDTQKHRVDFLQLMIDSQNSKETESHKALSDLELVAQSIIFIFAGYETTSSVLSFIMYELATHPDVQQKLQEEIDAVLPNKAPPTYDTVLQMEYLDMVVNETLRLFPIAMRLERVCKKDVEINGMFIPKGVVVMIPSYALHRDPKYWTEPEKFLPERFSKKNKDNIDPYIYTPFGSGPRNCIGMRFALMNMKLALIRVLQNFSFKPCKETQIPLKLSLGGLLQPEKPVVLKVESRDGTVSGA", "test": "biochemical"}, "[15]": {"biological_target": "T8, CB1 (Homo sapiens, UniProt P21554)", "T8 construct": "Eurofins Cerep (contract screen)", "T8 sequence (P21554 whole entry, species assumed)": "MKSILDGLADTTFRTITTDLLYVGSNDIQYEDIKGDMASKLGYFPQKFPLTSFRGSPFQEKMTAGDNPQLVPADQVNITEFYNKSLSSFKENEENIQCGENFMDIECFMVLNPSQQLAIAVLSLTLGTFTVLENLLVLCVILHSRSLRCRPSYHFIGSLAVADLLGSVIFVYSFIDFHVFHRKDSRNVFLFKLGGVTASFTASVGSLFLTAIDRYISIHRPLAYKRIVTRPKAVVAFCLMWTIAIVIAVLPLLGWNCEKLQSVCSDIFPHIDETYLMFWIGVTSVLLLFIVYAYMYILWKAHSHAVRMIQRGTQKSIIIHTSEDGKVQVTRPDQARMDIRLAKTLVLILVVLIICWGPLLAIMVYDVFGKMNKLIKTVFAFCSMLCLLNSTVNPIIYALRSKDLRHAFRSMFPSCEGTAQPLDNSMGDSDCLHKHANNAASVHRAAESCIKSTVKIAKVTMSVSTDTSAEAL", "test": "Eurofins Cerep binding screen CB1", "conditions": "10^−6 M; read-out: % Inhibition of control binding CB1"}, "[16]": {"biological_target": "T7, CYP3A4", "test": "in vitro", "conditions": "CYP3A4 enzyme (Promega P450-Glo luminescent assay)"}},
  "data": [
    {"smiles": "CCn1cncc1-c1c[nH]c2ccc(OC)cc12.Cl", "note": "[1e, 3-(1-Ethyl-1H-imidazol-5-yl)-5-methoxy-1H-indole hydrochloride]", "values": [
      {"measurement": "% Inhibition of control binding α1", "setting": "[1]", "result": 5, "unit": "%"},
      {"measurement": "main metabolic pathway", "setting": "[2]; MS of metabolite M1", "result": "hydroxylation"},
      {"measurement": "CLint scaled at 50 μM", "setting": "[2]; human, read-out: Clint, metabolic clearance", "result": 3.69, "unit": "mL/min/kg"},
      {"measurement": "cell viability in words, HepG2", "setting": "[3]", "result": "the cells remained viable in all tested concentrations"},
      {"measurement": "Ki", "setting": "[4]", "result": 30, "unit": "nM"},
      {"measurement": "function at the human 5-HT7 receptor", "setting": "[5]", "result": "full agonists"},
      {"measurement": "EC50", "setting": "[5]; hydrochloride salts", "result": 60, "unit": "nM"},
      {"measurement": "inhibition at 1 µM", "setting": "[6]; 10^−6 M (1 µM)", "result": 93, "unit": "%"},
      {"measurement": "inhibition at 0.01 µM", "setting": "[6]; 10^−8 M (10 nM)", "result": 6, "unit": "%"},
      {"measurement": "inhibition at 1 µM", "setting": "[7]", "result": 9, "unit": "%"},
      {"measurement": "inhibition at 1 µM", "setting": "[8]", "result": 9, "unit": "%"},
      {"measurement": "inhibition at 1 µM", "setting": "[9]", "result": 8, "unit": "%"},
      {"measurement": "cell viability in words, HEK-293", "setting": "[10]", "result": "the cells remained viable in all tested concentrations"},
      {"measurement": "water solubility in words", "setting": "[11]", "result": "water soluble"},
      {"measurement": "inhibition at 1 µM", "setting": "[12]", "result": 6, "unit": "%"},
      {"measurement": "inhibition at 1 µM", "setting": "[13]", "result": 24, "unit": "%"},
      {"measurement": "IC50", "setting": "[14]", "result": 270, "unit": "nM"},
      {"measurement": "inhibition at 1 µM", "setting": "[15]", "result": 8, "unit": "%"},
      {"measurement": "IC50", "setting": "[16]", "result": 240, "unit": "nM"}
    ]}
  ]
}
